Entries after “also recorded” stand apart in the source; their conditions may differ.
Columns and labels:
Nitrosomonas europaea = test: Nitrification inhibition assay with Nitrosomonas europaea (nitrite level after 24 h); type: cell-based; settings: for IC50 / activity at 100 µM: Nitrosomonas europaea; for IC50: 8-point dose response, 2 to 100 μM, read-out: IC50; for activity at 100 µM: tested concentration 100 μM, 24 h, normalized to DMSO (100%) and 100 μM DMP (0%), read-out: Nitrification (%) at tested concentration (0 = maximum activity)
Procedure: (§1) The compounds of formula (I) and (II) and (III)/(IV) were tested for their nitrification inhibition effect in two screens, using assays with the nitrifying bacteria N. europaea and N. multiformis. In practice, ammonium and candidate nitrification inhibitors (at 100 μM) were added to a dense bacterial culture in multiwell culture plates and after 24 h of incubation, the nitrite level was measured. To normalize for differences between batches of cultures and multiwell culture plates, for each well a relative nitrification was calculated that was normalized towards both the negative and positive controls (see “Material and Methods” below for full details).
(§2) Nitrite (NO2−) was measured using the Griess reagent (Product number: G4410, Griess reagent (modified), Sigma-Aldrich). Equal volumes of the sample or a diluted sample and the Griess reagent were mixed a transparent flat bottom multi-well plate and incubated in the dark at room temperature for 10 minutes. Absorbance values at 540 nm were measured spectrophotometrically (EnVision, Perkin Elmer®) and used to calculate the [NO2−] by use of a standard curve.
To prepare a high-throughput nitrification inhibition assay using N. europaea, late-log phase cultures were subcultivated two days before the assay. Just before the assay, the cultures were 5 times overconcentrated with fresh growth medium after centrifugation (4000 rpm, 15 min, 5° C.) in 50 mL centrifuge tubes (Cat. No. 430829, CentriStar™ Conical Centrifuge Tubes, Corning®). Per batch, all the cultures were pooled in one sterile Schott bottle and subsequently dispensed into 384-well plates (Cat. No. 781086, CELL-STAR® plate, Greiner Bio-One; 50 μl/well) by use of a dispenser (Multidrop™ Combi Reagent Dispenser, Thermo Scientific™) that was first flushed with growth medium. Specifically for the high-throughput screen for new nitrification inhibitors, 0.5 μl of 99.99% DMSO (negative control—final concentration 1%) was added to the outer two columns on the left side of the plate and 0.5 μl of 10 mM DMP (3,4-dimethylpyrazole, positive control—final concentration 100 μM) was added to the outer two columns on the right side manually. Finally, 0.5 μl of candidate nitrification inhibitors (5 mM stock solutions in 99.99% DMSO—final concentration 50 μM) were added to the central wells using a pin tool on a Tecan robot (Freedom EVO®, Tecan). In between additions, the pins were washed in sequence with 99.5% DMSO, MilliQ water and 100% ethanol and air-dried. All plates were separately wrapped in Parafilm. Stacks of 4 plates were put on top of a 96-well plate filled with 100 μl MilliQ per well, covered with aluminum foil and shaken at 150 rpm at 28° C. 24 h later, NO2− production was assessed. For this, the samples were first 200 times diluted by pipetting 1.5 μl of samples into 300 μl of fresh growth medium in intermediate plates (Cat. No. 353077, Falcon® 96-well Clear Round Bottom Microplate, Corning®), to then mix 15 μl of the diluted samples with 15 μl Griess reagent in the wells of a transparent, flat bottom 384-well plate (Cat. No. X^7001, Low Profile Microplate, Molecular Devices) that was measured spectrophotometrically at 540 nm (EnVision, Perkin Elmer®).
(§3) To assess the efficacy of the compounds (in terms of nitrification inhibition) and to enable comparison between plates and batches of cultures, we calculated the relative nitrification. More in detail, all nitrite results were normalized towards both a negative control, containing no compound, and a positive control, containing the benchmark (100 μM DMP), using Equation 1. This normalization was done per multi-well plate and each plate contained 32 positive and 32 negative controls.
IC50 values, that is the concentration that inhibits 50% of the nitrification, were calculated after fitting a logistic curve to 8-point dose response data, using doses between 2 and 100 μM with 1.75 fold steps. […]

[1] = tested on: NH3 or NH2OH oxidation in N. europaea cells; test: Nitrosomonas europaea ammonia vs. hydroxylamine oxidation assay; type: cell-based; settings: for Nitrification from NH2OH (% compared to DMSO): 1 mM NH2OH as N-source; for Nitrification from NH2OH (% compared to DMSO) / Nitrification from NH3 (% compared to DMSO): compounds 50 μM, NO2- after 30 min; for Nitrification from NH3 (% compared to DMSO): NH4+ 1 mM as N-source
Procedure: Two days old, late-log phase cultures with a NO2− concentration between 10 and 20 mM were washed 3 times in fresh growth medium (without N) and finally 4 times overconcentrated via centrifugation (4000 rpm, 15 min, 4° C.). Transparent, flat bottom 96-well plate (Cat. No. 353072, Falcon® 96 Well Clear Flat Bottom Microplate, Corning®) were filled with 150 μl culture per well using a dispenser (Multidrop™ Combi Reagent Dispenser, Thermo Scientific™). Compounds (final concentration 50 μM) were added in triplicate to the multi-well plate by use of a Tecan robot (Freedom EVO®, Tecan). Thiourea (positive control for inhibition of NH3 oxidation—final concentration 100 μM) and phenylhydrazine hydrochloride (positive control for inhibition of NH2OH oxidation—final concentration 1 mM) were added to the outer two columns. Each plate was made in duplicate to add either 500 μM (NH4)2SO4 (final [NH4+]=1 mM) or 1 mM NH2OH. All plates were separately wrapped in Parafilm. Stacks of 4 plates were put on top of a 96-well plate filled with 100 μl MilliQ per well, covered with aluminum foil and shaken (±150 rpm) at 28° C. To prevent read-out of secondary effects on NO2− production, NO2− was measured only 30 min later. For this, the samples were first 2 times diluted by pipetting 15 μl in 15 μl fresh growth medium in 96-well intermediate plates (Cat. Ref. PCR-96-FS-C, 96-well PCR Microplate, Axygen®) to then mix 15 μl of the diluted samples with 15 μl Griess reagent in the wells of a transparent, flat bottom 384-well plate (Cat. No. X^7001, Low Profile Microplate, Molecular Devices) that was measured spectrophotometrically at 540 nm (EnVision, Perkin Elmer®).
To get insights on the targeted metabolic pathway and to discriminate between compounds that specifically affect NH3 oxidation or that affect another pathway, three representative novel nitrification inhibitors (Examples 1, 5 and 6) were tested in the “ammonia vs hydroxylamine oxidation assay” in which NO2− production from NH3 was compared with NO2− production from NH2OH.

Nitrosospira multiformis = test: Nitrification inhibition assay with Nitrosospira multiformis (nitrite level after 24 h); type: cell-based; settings: for IC50 / activity at 100 µM: Nitrosospira multiformis; for IC50: 8-point dose response, 2 to 100 μM, read-out: IC50; for activity at 100 µM: tested concentration 100 μM, 24 h, normalized to DMSO (100%) and 100 μM DMP (0%), read-out: Nitrification at tested concentration (0 = maximum activity)
Procedure: as §1, §2
Cultures were first 5 times overconcentrated in fresh 181-medium by centrifugation (4000 rpm, 15 min, 5° C.) in 50 mL centrifuge tubes (Cat. No. 430829, CentriStar™ Conical Centrifuge Tubes, Corning®). Per batch, all the cultures were pooled in one sterile Schott bottle and subsequently dispensed in 384-well plates (Cat. No. 781086, CELLSTAR® plate, Greiner BioOne; 50 μl/well) by use of a dispenser (Multidrop™ Combi Reagent Dispenser, Thermo Scientific™) that was first flushed with 181-medium. 0.5 μl of 99.99% DMSO (negative control—final concentration […] was added to the outer two columns on the left side of the plate and 0.5 μl of 10 mM DMP (3,4-dimethylpyrazole, positive control—final concentration 100 μM) was added to the outer two columns on the right side manually. Finally, 0.5 μl of candidate nitrification inhibitors (5 mM stock solutions in 99.99% DMSO—final concentration 50 μM) were added to the central wells using a pin tool on a Tecan robot (Freedom EVO®, Tecan). In between additions, the pins were washed in sequence with 99.5% DMSO, MilliQ water and 100% ethanol and air-dried. All plates were separately wrapped in Parafilm. Stacks of 4 plates were put on top of a 96-well plate filled with 100 μl MilliQ per well, covered with aluminum foil and shaken (±150 rpm) at 30° C. 24 h later, NO2− production was assessed. For this, the samples were first 100 times diluted by pipetting 3 μl of samples into 300 μl fresh growth medium in intermediate plates (Cat. No. 353077, Falcon® 96-well Clear Round Bottom Microplate, Corning®) to then mix 15 μl of the diluted samples with 15 μl Griess reagent in the wells of a transparent, flat bottom 384-well plate (Cat. No. X^7001, Low Profile Microplate, Molecular Devices) that was measured spectrophotometrically at 540 nm (EnVision, Perkin Elmer®).
as §3
IC50 values, that is the concentration that inhibits 50% of the nitrification, were calculated after fitting a logistic curve to 8-point dose response data, using doses between 2 and 100 μM with 1.75 fold steps. If a concentration of 2 μM already inhibited nitrification, the IC50 value could not be calculated. In that case, IC50 values represent the dose that gives inhibition closest to 50%.
The compounds of formula (I) and (II) were tested for their nitrification inhibition effect in two screens, using assays with the nitrifying bacteria N. europaea and N. multiformis. […]

Merelbeke soil = test: In soil nitrification inhibition assay, Merelbeke soil; settings: for inhibition of ammonium consumption in soil, in words: 50 μM, one week of treatment; for inhibition at 50 µM: soil, 168 h, 7 days, read-out: % Nitrification inhibition in soil (7 days of incubation, Merelbeke soil)
Procedure: Top layer (0 to 10 cm) soil samples were collected from different fields in Belgium (Merelbeke and Moorslede). Vegetation on the field trial was removed and samples were taken from different plots. All soil samples were mixed and sieved (mesh size 2.8 mm) to filter large debris and homogenize soil. The soil was stored at 5° C. in plastic containers covered with Saran foil to prevent changes in microbial community composition and to maintain the original soil water content. Soil water content was determined by drying 20 g soil for 48 h in a 60° C. oven and measuring weight before and after drying. Based on the soil water content (±20%), compound solutions were prepared so that addition of 200 μl compound and 200 μl NH4Cl solution would result in a final compound concentration of 50 μM and a final NH4^+ concentration of 10 mM. Per treatment, 5 small pots were filled with 20 g soil. Next, the soil was treated first with the respective compound solution and then with the NH4Cl solution. Per tray, positive (50 μM DMP) and negative controls (DMSO) were included. Pots were incubated at 21° C. (6 a.m. to 10 p.m. light) for 7 days. Demineralized water was added to the soil every 2 to 3 days to a soil weight of 20 g. In the end, each sample of 20 g soil was dissolved in 100 ml 1M KCl and shaken for 1 hour, followed by filtration through Whatmann® paper. The filtrate was used to measure pH, NH4^+ and NO3− concentrations. The nitrification inhibitors were applied in a nitrification inhibition assay using agricultural soil. In practice, ammonium with or without the new nitrification inhibitors was added to soil from a field in Merelbeke (Belgium). The ammonium level was measured at the start of the experiment and at the end of the experiment, after one week of incubation. A nitrification inhibition percentage was calculated by comparing the reduction in ammonium level with the nitrification inhibitor to the reduction in ammonium without the nitrification inhibitor. Ammonium was added to soil with a high nitrification activity and treated with the nitrification inhibitors (final concentration of 50 μM). […] This validates that the new nitrification inhibitors are effectively inhibiting ammonia oxidation by soil communities.

SMILES | nitrification inhibition, in words (Nitrosomonas europaea) | IC50 (Nitrosomonas europaea) [µM] | activity at 100 µM (Nitrosomonas europaea) [%] | Nitrification from NH2OH (% compared to DMSO) [1] [%] | Nitrification from NH3 (% compared to DMSO) [1] [%] | nitrification inhibition, in words (Nitrosospira multiformis) | IC50 (Nitrosospira multiformis) [µM] | activity at 100 µM (Nitrosospira multiformis) [%] | effect on hydroxylamine (NH2OH) oxidation, in words ([1]; 30 minutes assay, listed as DMP) | inhibition of ammonium consumption in soil, in words (Merelbeke soil) | inhibition at 50 µM (Merelbeke soil) [%]
CN(Cc1c(F)cccc1Cl)CN1CCOC1=S [Example 6, 3-[[(2-chloro-6-fluorophenyl)methyl-methylamino]methyl]-1,3-oxazolidine-2-thione] | strong nitrification inhibition | 14 | 0 | 80 | 18 | strong nitrification inhibition | < 3.5 | 0 | – | – | –
Cc1c[nH]nc1C [Example C1, 3,4-dimethylpyrazole, reference compound] | – | 6 | 0 | 56 | 27 | – | 14 | 0 | reduced NH2OH oxidation; also recorded: limited effect | – | –
O=C(CSC1=NCCS1)N1CCCC1 [Example 10] | – | > 100 | 81 | – | – | – | < 10 | 6 | – | significant inhibition | 7
CCC1CCCCN1C(=O)CSC1=NCCS1 (stereo not drawn) [Example 9] | – | > 100 | 68 | – | – | – | < 6 | 0 | – | significant inhibition | 10
